# Results published in publication PMC6627486, “Ipomoeassin F Binds Sec61α to Inhibit Protein Translocation” (Journal of the American Chemical Society, 2019).
# Like-named read-outs stand apart in the source and are kept apart here.
# Columns and labels:
# [1] = test system: HEK R66I; assay: Alamar Blue viability, HEK293 expressing Sec61α R66I; format: cell-based, human; details: read-out: cell viability IC50
# Procedure: AlamarBlue Cytotoxicity Assay […]
# Compounds were diluted from a DMSO stock into culture medium as described above. Cells were treated for 96 h, then viability measured with AlamarBlue, detected using the conditions described but with a BMG Fluostar Optima Microplate Reader. The percentage of viability compared to the negative control (DMSO-treated cells) was determined. GraphPad Prism 6 software was used to make a plot of % viability versus sample […]
# HCT116 and HEK293T. Viable cells were counted using an automated cell counter (BioRad TC20) before each experiment. Experiments were performed either in quadruplicate or duplicate sets. First 100µ l of HCT116 or HEK293T cells at a density of 25,000 cells/m l was seeded in black wall, clear bottom, 96-well plates (2500 cells/well) (Viewplate-96 Perkin Elmer). HEK293 FRT Trex cells were seeded in complete medium supplemented to 1 μg/ml Doxycycline to induce expression of Sec61a constructs. Cells were then incubated at 37 °C and 5% CO2 for 24 h. The compounds were dissolved in DMSO to make drug stocks (10 mM). […] Emission of each well at 620 nm was detected by a microplate reader (Perkin Elmer EnSpire) at excitation 580 nm. The percentage of viability compared to the negative control (DMSO -treated cells) was determined. […]
# [2] = test system: IL-2 production by Jurkat T cells; assay: Activation-induced IL-2 production by Jurkat T cells; format: cell-based, human; details: 1 h preincubation then 24 h activation
# Procedure: Jurkat E6.1 (ATCC TIB-152TM) T cells were cultured in RPMI GlutamaxTM (Life Technologies),
# supplemented with 10% heat-inactivated fetal calf serum (FCS) (Invitrogen) and penicillin/streptomycin
# (100 U/ml, 100 µg/ml). […]
# FlowJo X software. […]
# [3] = target: T1, Sec61α (Homo sapiens, UniProt P61619); assay: Live cell-based biotin affinity pulldown in MDA-MB-231 cells; format: binding; details: live MDA-MB-231 cells
# T1 construct: enabling a biotin analogue of ipomoeassin F to pull down Sec61α from live cells; endogenous in cells; host or cells: MDA-MB-231
# T1 sequence (P60468 whole entry): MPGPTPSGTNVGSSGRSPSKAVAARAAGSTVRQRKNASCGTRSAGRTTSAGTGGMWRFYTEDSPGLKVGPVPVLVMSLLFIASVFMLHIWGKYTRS
# T1 sequence (P60059 whole entry, further chain): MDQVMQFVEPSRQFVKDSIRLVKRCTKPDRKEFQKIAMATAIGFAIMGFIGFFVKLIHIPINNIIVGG
# T1 sequence (P61619 whole entry): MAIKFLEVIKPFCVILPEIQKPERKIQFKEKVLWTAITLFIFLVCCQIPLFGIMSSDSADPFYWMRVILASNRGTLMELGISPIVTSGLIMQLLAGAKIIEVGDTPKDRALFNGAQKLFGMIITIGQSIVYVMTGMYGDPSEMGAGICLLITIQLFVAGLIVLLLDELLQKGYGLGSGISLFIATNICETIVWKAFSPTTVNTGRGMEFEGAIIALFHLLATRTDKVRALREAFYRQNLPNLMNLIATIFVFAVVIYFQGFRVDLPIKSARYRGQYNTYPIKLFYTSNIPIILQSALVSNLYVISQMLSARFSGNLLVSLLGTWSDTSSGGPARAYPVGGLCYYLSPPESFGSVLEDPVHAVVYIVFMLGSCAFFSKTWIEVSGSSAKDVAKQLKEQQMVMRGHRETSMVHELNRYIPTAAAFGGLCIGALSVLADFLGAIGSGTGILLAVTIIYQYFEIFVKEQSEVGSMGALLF
# Procedure: Activity Based Protein Profiling
# MDA-MB-231 cells were seeded in five groups of 6 cm petri dishes with 3 ml DMEM high glucose culture and incubated at 37 °C and 5% CO2 until 90% confluency. […]
# After 1 h incubation at 37 °C […]
# and 5% CO2, the cells were harvested by scraping and washed with cold PBS for 3 times. The cells were then lysed in 100 µl of lysis buffer 1 (50 mM Hepes, pH 9.0, 100 mM NaCl, 10% glycerol, 5 mM MgCl2, 1 mM CaCl2, 0.2% NP40, 1x protease inhibitor) using ultrasound sonication. The supernatant of each group was collected after centrifugation at 21,100 g and 4 °C for 10 min, and the protein concentration was quantified with a BCA kit. 10% SDS was then added into protein solution to make a final SDS concentration of 0.4%, and the solution was incubated at 95 °C for 5 min. […]
# According to the experimental needs, MDA-MB-231 cells were seeded into 3-7 groups of 15-cm tissue-culture dishes and incubated at 37 °C and 5% CO2 until 90% confluency. […] The supernatant of each group was collected after centrifugation at 4 °C and 21,100 g for 10 min, and the protein concentration was quantified with the BCA kit. […]
# rotation. […] The other part was analyzed by Western blotting, in which proteins on the nitrocellulose membrane were visualized by either fluorescently labeled streptavidin or an anti-Sec61α antibody. […]
structure (smiles),measurement,setting,value
"CC(=C\C=C\C(C)=C\[C@H](O)[C@@H](O)C[C@H](C)O)/C=C(C)/C=C/C(=O)O[C@H]1CCCC(=O)O[C@@H]([C@@H](C)C/C(C)=C/[C@@H](C)[C@H](O)C[C@@H](C)O)C/C=C(\C)C[C@@H]1C [mycolactone, reference compound]",IC50,[1]; 72 h,4620 nM
same,IC50,[2],6 nM
C/C=C(\C)C(=O)O[C@H]1[C@H](OC(=O)/C=C/c2ccc(OCc3cn(CCOCCOCCOCCNC(=O)CCCC[C@@H]4SC[C@@H]5NC(=O)N[C@@H]54)nn3)cc2)[C@@H](O)[C@@H]2O[C@H]3[C@H](O[C@@H](CCCCC)CCCCCCC(=O)CCC(=O)OC[C@H]1O2)O[C@H](C)[C@H](OC(C)=O)[C@@H]3O [compound 5],recovery of ∼40 kDa protein (Sec61α) by biotin probe in streptavidin pulldown,[3]; 9 at 500 nM,no proteins were selectively enriched
C/C=C(\C)C(=O)O[C@@H]1[C@@H](O)[C@@H]2O[C@H]3[C@H](O[C@@H](CCCCC)CCCCCCC(=O)CCC(=O)OC[C@@H](O2)[C@H]1OC(=O)/C=C/c1ccccc1)O[C@H](C)[C@H](OC(C)=O)[C@@H]3O [ipomoeassin F],competition with probe 7 in pulldown of ∼40 kDa protein,"[3]; 10 nM 7 + 50 nM ipomoeassin F, 20 nM 7 + 1 μM 8",outcompeted by a 5-fold excess
same,IC50,"[1]; Homo sapiens, HEK293, 72 h",> 10000 nM
same,IC50,[2]; Homo sapiens,9.9 nM
